Results reported in US11634447B2 (priority 2012, dated 2023).

Test system: bacterial strain LF82 binding to the glycoprotein BSA-(Mannose)3
Test: Bacterial Binding Assay (BBA)
Assay type: cell-based, Escherichia coli
Conditions: read-out: Bacterial Binding Assay IC50, LF82/Luciferase strain binding to BSA-(Man)3 coated plates, luminescence
Outline: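 Inhibition of LF82/luciferase E. coli adhesion is read as luminescence after washing off unbound cells. Compound and bacteria (10^7 per well) are co-incubated 40-75 min at room temperature on wells coated with 0.5-2 μg/mL BSA-(Man)3, with BSA-only wells as background; IC50 values derived.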

OC[C@H]1O[C@H](Cc2ccc(-c3ccc(C[C@H]4O[C@H](CO)[C@@H](O)[C@H](O)[C@@H]4O)cc3)cc2)[C@@H](O)[C@@H](O)[C@@H]1O [Compound 41, ((2R,3S,4R,5S,6R)-2-(Hydroxymethyl)-6-[[4-[4-[[(2R,3S,4R,5S,6R)-3,4,5-trihydroxy-6-(hydroxymethyl)tetrahydropyran-2-yl]methyl]phenyl]phenyl]methyl]tetrahydropyran-3,4,5-triol)]
IC50: 550 nM
